Results as given in the NIST ThermoML archive (doi:10.1016/j.fluid.2007.09.002).
Numbers after ± are expanded uncertainties.

Tests used:
[1] = Liquid, Closed cell (Static) method
[2] = excess molar enthalpy (molar enthalpy of mixing); xn = mol fraction of the nth substance listed; conditions: 298.15 K, 101.3 kPa, Liquid, Flow calorimetry

CC#CCCC [2-hexyne]
[1]
Conditions | vapor or sublimation pressure [kPa]
263.15 K | 1.372 ± 0.056
273.15 K | 2.56 ± 0.1
283.15 K | 4.532 ± 0.18
293.15 K | 7.66 ± 0.31
298.15 K | 9.804 ± 0.39
303.15 K | 12.43 ± 0.5
313.15 K | 19.45 ± 0.78
323.15 K | 29.46 ± 1.2
333.15 K | 43.35 ± 1.7
343.15 K | 62.15 ± 2.5

CC#CCCC [2-hexyne] + CCCCOC
[2]
Conditions | excess molar enthalpy [kcal/mol]
x1 = 0.1468 | -0.0143 ± 0.00239
x1 = 0.3058 | -0.0287 ± 0.00239
x1 = 0.4949 | -0.039 ± 0.00239
x1 = 0.637 | -0.0382 ± 0.00239
x1 = 0.7489 | -0.0335 ± 0.00239
x1 = 0.8444 | -0.0191 ± 0.00239

CCC#CCC [3-hexyne]
[1]
Conditions | vapor or sublimation pressure [kPa]
263.15 K | 1.613 ± 0.065
273.15 K | 3.001 ± 0.12
283.15 K | 5.293 ± 0.21
293.15 K | 8.909 ± 0.36
298.15 K | 11.38 ± 0.46
303.15 K | 14.39 ± 0.58
313.15 K | 22.4 ± 0.9
323.15 K | 33.77 ± 1.4
333.15 K | 49.44 ± 2
343.15 K | 70.52 ± 2.8

CCC#CCC [3-hexyne] + CCCCOCCCC
[2]
Conditions | excess molar enthalpy [kcal/mol]
x1 = 0.1599 | 0.00956 ± 0.00239
x1 = 0.2756 | 0.0143 ± 0.00239
x1 = 0.3989 | 0.0174 ± 0.00239
x1 = 0.496 | 0.0184 ± 0.00239
x1 = 0.5781 | 0.0182 ± 0.00239
x1 = 0.6579 | 0.0163 ± 0.00239
x1 = 0.7475 | 0.0136 ± 0.00239
x1 = 0.8783 | 0.00837 ± 0.00239

CCCCOC [butyl methyl ether]
[1]
Conditions | vapor or sublimation pressure [kPa]
263.15 K | 3.054 ± 0.062
273.15 K | 5.436 ± 0.11
283.15 K | 9.207 ± 0.19
293.15 K | 14.93 ± 0.3
298.15 K | 18.73 ± 0.38
303.15 K | 23.3 ± 0.47
313.15 K | 35.15 ± 0.71
323.15 K | 51.45 ± 1
333.15 K | 73.31 ± 1.5
343.15 K | 101.96 ± 2
